“And” between values parts separate entries of the source, which are not always exact repeats. Identical values can stand only once.
Molecular target: dihydrodipicolinate reductase (DHPR) (Escherichia coli, UniProt P04036)
Test: Screening of bi-ligands for DHPR (Example 25), kinetic assay at 340 nm
Type: biochemical
Settings: bi-ligands, Example 25 (FIG. 7); substrate and NADPH near Km
Description: Screening of Biligands for Binding to Dihydrodipicolinate Reductase (DHPR)
This example describes the screening of bi-ligands having common ligand mimics for binding activity to dihydrodipicolinate reductase (DHPR).
Bi-ligands were produced by the methods of Examples 16 to 18. The bi-ligands were screened for binding to DHPR.
Stock solutions of each of the reagents were prepared in the following concentrations. Dilutions of the stock solutions were prepared prior to running the assay in the concentrations indicated below. Dilution of DHPR was prepared in 10 mM HEPES at a pH of 7.4. DHPS was not diluted and was stored in eppindorf tubes.
The L-ASA solution was prepared in the following manner. 180 μM stock solution of ASA was prepared. 100 μl of the ASA stock was mixed with 150 μl of concentrated NaHCO3 and 375 μl of […]. For use in the assay, 28.8 mM L-ASA equal 625 μl of the solution. The L-ASA stock solution was kept at a temperature of −20° C. After dilution, the pH of the 28.8 mM solution was checked and maintained between 1 and 2.
First, the DHPS reaction was monitored at 340 nm prior to and after addition of the inhibitor to detect background reaction with the inhibitor. The solution for background detection was a 945 μl solution containing 0.1 HEPES (pH 7.8), 1 mM pyruvate, 6 μM NADPH, 40 μM L-ASA, and 7 μl of 1 mg/ml DHPS at 25° C. in the volumes provided above. The sample solution was then mixed and incubated for 10 minutes. Next, 500 nM solutions of the inhibitors and enough DMSO to provide a final DMSO concentration of 5% were added. The solution was mixed and incubated for an additional 6 minutes.
In DHPR samples, 5 μl of the diluted DHPR enzyme were added. The sample was mixed for 20 seconds and then the reaction was run for 10 minutes. After a 50 second lag, the samples were read in a Cary spectrophotometer at 340 nm. Reading of the samples was continued until 300 seconds. Cuvette #1 contained the control reaction (no inhibitor), and cuvette #2 contained the positive control reaction in which Cibacron Blue at 2.58 μM was substituted for inhibitor to yield 70 to 80% inhibition. The substrate and NADPH or NAHD were kept near their Km values.

Chain of dihydrodipicolinate reductase (DHPR) (P04036 whole entry): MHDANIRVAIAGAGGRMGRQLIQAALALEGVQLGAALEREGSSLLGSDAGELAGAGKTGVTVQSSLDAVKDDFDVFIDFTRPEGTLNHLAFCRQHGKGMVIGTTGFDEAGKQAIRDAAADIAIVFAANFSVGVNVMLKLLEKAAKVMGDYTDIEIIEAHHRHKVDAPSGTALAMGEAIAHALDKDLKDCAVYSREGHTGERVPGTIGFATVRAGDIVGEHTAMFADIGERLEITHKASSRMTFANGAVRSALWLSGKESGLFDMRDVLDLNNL

Row | Compound | IC50
1 | N=C1NC(=O)C(=Cc2ccc(O)c(C(=O)NCCSc3cc(C(=O)O)nc(C(=O)O)c3)c2)S1 [compound 5a, 4-{2-[2-hydroxy-5-(2-imino-4-oxo-thiazolidin-5-ylidenemethyl)-benzoylamino]-ethylsulfanyl}-pyridine-2,6-dicarboxylic acid] | ~8.2 µM and ~15.5 µM
2 | N=C1NC(=O)C(=Cc2cccc(C(=O)NCCSc3cc(C(=O)O)nc(C(=O)O)c3)c2)S1 [compound 5b, 4-{2-[3-(2-imino-4-oxo-thiazolidin-5-ylidenemethyl)-benzoylamino]-ethylsulfanyl}-pyridine-2,6-dicarboxylic acid] | ~1.02 µM
3 | N=C1NC(=O)C(=Cc2ccc(C(=O)NCCSc3cc(C(=O)O)nc(C(=O)O)c3)cc2)S1 [compound 5c, 4-{2-[4-(2-imino-4-oxo-thiazolidin-5-ylidenemethyl)-benzoylamino]-ethylsulfanyl}-pyridine-2,6-dicarboxylic acid] | ~33 µM
